Source: ChEMBL document CHEMBL1743341, “Cytochrome p450 enzymes mechanism based inhibitors: common sub-structures and reactivity” (Curr Drug Metab, 2005)

Tests used:
Format in all cases: ADME
Cytochrome P450 3A2 = Cytochrome P450 3A2 (Rattus norvegicus, UniProt P05183); test: Mechanism based inhibition of rat cytochrome P450 CYP3A2 measured by testosterone hydroxylation at positions 2-beta and 6-beta
Cytochrome P450 2C11 = molecular target: T1, Cytochrome P450 2C11 (Rattus norvegicus, UniProt P08683); test: Mechanism based inhibition of rat cytochrome P450 CYP2C11 measured by testosterone hydroxylation at positions 2-alpha and 16-alpha
T1 sequence (P08683 whole entry): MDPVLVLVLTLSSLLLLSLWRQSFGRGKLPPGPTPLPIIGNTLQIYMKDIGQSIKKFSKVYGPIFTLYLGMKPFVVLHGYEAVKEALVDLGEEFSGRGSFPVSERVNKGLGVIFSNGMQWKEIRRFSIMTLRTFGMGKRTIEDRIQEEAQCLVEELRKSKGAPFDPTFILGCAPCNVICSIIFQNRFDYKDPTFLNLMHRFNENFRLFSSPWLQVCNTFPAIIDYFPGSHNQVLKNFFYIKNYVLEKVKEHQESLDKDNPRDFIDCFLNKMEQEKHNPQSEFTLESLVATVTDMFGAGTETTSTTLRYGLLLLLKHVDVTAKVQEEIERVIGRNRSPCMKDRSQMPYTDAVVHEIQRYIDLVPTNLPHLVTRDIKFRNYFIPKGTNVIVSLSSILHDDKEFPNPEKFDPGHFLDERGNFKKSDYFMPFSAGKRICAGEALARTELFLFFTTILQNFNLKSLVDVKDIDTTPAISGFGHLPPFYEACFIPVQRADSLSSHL

[1] = molecular target: Cholesterol side-chain cleavage enzyme, mitochondrial (Bos taurus, UniProt P00189); test: Mechanism based inhibition of bovine cytochrome P450 CYP11A1; conditions: cattle
Chain of Cholesterol side-chain cleavage enzyme, mitochondrial (P00189 whole entry): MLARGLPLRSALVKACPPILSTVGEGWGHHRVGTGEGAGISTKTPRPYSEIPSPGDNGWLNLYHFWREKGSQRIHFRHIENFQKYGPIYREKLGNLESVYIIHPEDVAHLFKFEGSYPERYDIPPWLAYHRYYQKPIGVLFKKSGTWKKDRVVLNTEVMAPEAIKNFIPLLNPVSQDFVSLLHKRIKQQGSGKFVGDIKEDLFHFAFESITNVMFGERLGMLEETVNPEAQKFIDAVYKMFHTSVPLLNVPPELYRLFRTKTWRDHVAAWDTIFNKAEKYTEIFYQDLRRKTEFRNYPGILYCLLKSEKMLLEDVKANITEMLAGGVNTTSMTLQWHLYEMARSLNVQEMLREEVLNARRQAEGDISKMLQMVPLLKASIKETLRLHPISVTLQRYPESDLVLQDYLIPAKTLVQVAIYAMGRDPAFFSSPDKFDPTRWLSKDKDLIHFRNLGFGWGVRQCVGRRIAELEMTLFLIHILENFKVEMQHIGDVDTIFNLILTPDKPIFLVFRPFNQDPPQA

Cytochrome P450 2C5 = Cytochrome P450 2C5 (Oryctolagus cuniculus, UniProt P00179); test: Mechanism based inhibition of rabbit cytochrome P450 CYP2C5
Chain of Cytochrome P450 2C5 (P00179 whole entry): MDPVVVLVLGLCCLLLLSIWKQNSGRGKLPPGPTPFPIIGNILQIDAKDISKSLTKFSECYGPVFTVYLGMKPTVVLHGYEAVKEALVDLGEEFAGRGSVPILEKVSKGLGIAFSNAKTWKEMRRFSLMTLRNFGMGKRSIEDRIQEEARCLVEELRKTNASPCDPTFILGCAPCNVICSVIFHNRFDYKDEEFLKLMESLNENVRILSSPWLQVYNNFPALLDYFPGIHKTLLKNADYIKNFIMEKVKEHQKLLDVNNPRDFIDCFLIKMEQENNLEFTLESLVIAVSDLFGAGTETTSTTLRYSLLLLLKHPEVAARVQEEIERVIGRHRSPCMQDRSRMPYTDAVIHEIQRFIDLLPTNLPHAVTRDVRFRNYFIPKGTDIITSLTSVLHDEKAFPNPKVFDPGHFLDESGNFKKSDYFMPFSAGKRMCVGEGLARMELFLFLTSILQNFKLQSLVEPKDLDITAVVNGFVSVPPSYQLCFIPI

Cytochrome P450 2B4 [2] = molecular target: T2, Cytochrome P450 2B4 (Oryctolagus cuniculus, UniProt P00178); test: Mechanism based inhibition of rabbit cytochrome P450 CYP2B4 partition ratio
T2 sequence (P00178 whole entry): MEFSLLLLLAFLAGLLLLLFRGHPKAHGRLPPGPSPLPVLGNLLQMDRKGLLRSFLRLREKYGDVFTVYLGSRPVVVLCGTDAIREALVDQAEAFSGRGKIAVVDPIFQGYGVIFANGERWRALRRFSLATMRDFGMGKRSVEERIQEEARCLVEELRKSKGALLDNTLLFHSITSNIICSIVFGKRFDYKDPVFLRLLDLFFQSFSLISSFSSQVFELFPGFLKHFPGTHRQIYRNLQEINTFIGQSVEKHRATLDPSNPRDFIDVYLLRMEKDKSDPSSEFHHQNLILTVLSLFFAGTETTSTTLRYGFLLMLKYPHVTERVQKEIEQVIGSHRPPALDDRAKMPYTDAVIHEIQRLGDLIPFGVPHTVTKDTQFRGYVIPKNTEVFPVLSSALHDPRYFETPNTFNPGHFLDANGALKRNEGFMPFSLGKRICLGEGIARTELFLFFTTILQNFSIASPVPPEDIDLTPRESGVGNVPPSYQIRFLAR

Cytochrome P450 2B4 [3] = molecular target: T2, Cytochrome P450 2B4; test: (§1) Mechanism based inhibition of rabbit cytochrome P450 CYP2B4 1-Phenylethanol oxidation was used as probe activity
CYP2B4 = molecular target: T3, CYP2B4 (Oryctolagus cuniculus, UniProt P00178); test: as §1; conditions: rabbit, probe 1-phenylethanol (oxidation)
T3 sequence (P00178 whole entry): T2 sequence (P00178 whole entry)

CYP2B6 = molecular target: T4, CYP2B6 (Homo sapiens, UniProt P20813); test: Mechanism based inhibition of human cytochrome P450 CYP2B6 measured by 7-EFC O-deethylation activity; conditions: probe 7-EFC (O-deethylation)
T4 sequence (P20813 whole entry): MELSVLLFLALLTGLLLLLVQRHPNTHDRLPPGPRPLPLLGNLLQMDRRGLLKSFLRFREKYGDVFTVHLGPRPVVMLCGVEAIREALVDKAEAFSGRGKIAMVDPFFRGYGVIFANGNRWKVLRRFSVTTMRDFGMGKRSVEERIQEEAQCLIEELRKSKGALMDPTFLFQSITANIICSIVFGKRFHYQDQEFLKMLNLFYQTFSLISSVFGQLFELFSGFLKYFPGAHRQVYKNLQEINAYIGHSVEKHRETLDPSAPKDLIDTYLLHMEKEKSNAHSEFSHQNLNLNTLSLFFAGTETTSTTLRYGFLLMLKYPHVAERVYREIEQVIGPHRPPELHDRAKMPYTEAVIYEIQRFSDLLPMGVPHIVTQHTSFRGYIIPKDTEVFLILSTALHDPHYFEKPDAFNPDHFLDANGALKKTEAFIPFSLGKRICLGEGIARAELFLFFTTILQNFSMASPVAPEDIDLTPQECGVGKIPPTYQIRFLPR

CYP3A4 = CYP3A4 (Homo sapiens, UniProt P08684); test: (§2) Mechanism based inhibition of human cytochrome P450 CYP3A4 measured by 7BFC O-debenzylation; conditions: human, probe 7BFC (O-debenzylation)
Chain of CYP3A4 (P08684 whole entry): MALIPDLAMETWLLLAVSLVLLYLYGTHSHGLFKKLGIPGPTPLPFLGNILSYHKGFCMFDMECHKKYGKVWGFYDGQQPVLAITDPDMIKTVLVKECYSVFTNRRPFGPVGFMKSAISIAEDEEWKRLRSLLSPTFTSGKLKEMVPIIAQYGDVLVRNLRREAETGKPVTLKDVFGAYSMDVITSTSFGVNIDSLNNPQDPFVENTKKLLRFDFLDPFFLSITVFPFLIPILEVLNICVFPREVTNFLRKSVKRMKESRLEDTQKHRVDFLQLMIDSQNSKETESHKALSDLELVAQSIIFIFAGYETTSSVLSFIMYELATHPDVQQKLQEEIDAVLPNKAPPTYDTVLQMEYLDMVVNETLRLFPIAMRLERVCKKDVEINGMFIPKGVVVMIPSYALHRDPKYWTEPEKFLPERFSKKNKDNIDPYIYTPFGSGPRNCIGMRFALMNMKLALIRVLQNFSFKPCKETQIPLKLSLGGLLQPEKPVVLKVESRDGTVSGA

Cytochrome P450 3A4 = Cytochrome P450 3A4 (Homo sapiens, UniProt P08684); test: as §2
Chain of Cytochrome P450 3A4 (P08684 whole entry): as above

CYP1A2 = molecular target: T5, CYP1A2 (Rattus norvegicus, UniProt P04799); test: (§3) Mechanism based inhibition of rat cytochrome P450 CYP1A2 measured by zolmitriptan metabolism; conditions: rat, probe zolmitriptan (metabolism)
T5 sequence (P04799 whole entry): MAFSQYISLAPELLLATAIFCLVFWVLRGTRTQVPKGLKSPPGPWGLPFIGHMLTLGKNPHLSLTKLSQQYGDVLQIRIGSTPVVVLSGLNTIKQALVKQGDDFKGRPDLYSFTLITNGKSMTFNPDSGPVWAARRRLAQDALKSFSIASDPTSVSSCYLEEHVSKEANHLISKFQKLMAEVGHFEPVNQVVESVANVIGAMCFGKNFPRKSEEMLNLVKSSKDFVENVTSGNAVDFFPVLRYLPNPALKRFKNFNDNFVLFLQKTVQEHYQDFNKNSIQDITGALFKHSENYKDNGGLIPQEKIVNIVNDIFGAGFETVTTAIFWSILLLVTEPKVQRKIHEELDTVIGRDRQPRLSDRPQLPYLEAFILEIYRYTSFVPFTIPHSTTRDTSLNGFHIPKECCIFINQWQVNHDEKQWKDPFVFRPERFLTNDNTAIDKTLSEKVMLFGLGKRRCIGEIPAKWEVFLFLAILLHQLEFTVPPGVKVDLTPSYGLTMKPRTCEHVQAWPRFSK

Cytochrome P450 1A2 = molecular target: T6, Cytochrome P450 1A2 (Rattus norvegicus, UniProt P04799); test: as §3
T6 sequence (P04799 whole entry): T5 sequence (P04799 whole entry)

Chain of Cytochrome P450 3A2 (P05183 whole entry): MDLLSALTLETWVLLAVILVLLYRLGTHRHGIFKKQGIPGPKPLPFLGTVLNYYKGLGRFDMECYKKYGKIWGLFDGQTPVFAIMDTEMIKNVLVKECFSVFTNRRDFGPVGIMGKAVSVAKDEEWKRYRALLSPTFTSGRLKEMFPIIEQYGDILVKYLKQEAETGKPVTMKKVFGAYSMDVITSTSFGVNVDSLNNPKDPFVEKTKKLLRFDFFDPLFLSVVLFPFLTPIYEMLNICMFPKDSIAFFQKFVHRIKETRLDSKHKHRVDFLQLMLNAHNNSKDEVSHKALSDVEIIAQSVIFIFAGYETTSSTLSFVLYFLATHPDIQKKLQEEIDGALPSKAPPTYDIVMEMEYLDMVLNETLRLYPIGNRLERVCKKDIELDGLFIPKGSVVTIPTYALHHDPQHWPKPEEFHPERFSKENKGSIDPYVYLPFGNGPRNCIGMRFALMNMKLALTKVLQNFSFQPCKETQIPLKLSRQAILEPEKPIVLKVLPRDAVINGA

How did the mechanism based inhibition (Cytochrome P450 3A2) turn out when [N]=O [NITRIC OXIDE] was run?
The mechanism based inhibition was “Cytochrome P450 mechanistic inhibitor: PMID 9400024”.

What about the mechanism based inhibition (Cytochrome P450 2C11) of the same molecule?
Its mechanism based inhibition is “Cytochrome P450 mechanistic inhibitor: PMID 9400024”.

How did the mechanism based inhibition [1] turn out when CC(C)CCS[C@@H](C)[C@H]1CC[C@H]2[C@@H]3CC=C4C[C@@H](O)CC[C@]4(C)[C@H]3CC[C@]12C was run?
Its mechanism based inhibition is “Cytochrome P450 mechanistic inhibitor: PMID 7599132”.

How did the mechanism based inhibition (Cytochrome P450 2C5) turn out when C[C@]12CC[C@H]3[C@@H](CC=C4C[C@@H](O)CC[C@@]43C)[C@@H]1CC[C@@H]2C(=O)C(Cl)Cl was run?
The mechanism based inhibition was “Cytochrome P450 mechanistic inhibitor: PMID 9168258”.

COC(=O)c1csc2snnc12 was tested. Which partition_ratio (Cytochrome P450 2B4 [2]) did it give?
Its partition_ratio is 2100.

And the Ki (Cytochrome P450 2B4 [3])?
The Ki was 2000 µM.

And the kinact (CYP2B4)?
The kinact was 0.000667 s⁻¹.

What does the source list for CC1(C)C=Cc2c(ccc3c2OC[C@@H](c2ccc(O)cc2O)C3)O1 [GLABRIDIN]?
kinact (CYP2B6): 0.00133 s⁻¹; kinact (CYP3A4): 0.00233 s⁻¹; Ki (Cytochrome P450 3A4): 7 µM

With COCCCC/C(=N\OCCN)c1ccc(C(F)(F)F)cc1 [FLUVOXAMINE] as the molecule, how does the kinact (CYP1A2) read?
The kinact was 0.00267 s⁻¹.

What about the Ki (Cytochrome P450 1A2) of the same molecule?
Its Ki is 57.4 µM.
